Test results from ChEMBL document CHEMBL1201862, “PubChem BioAssay data set” (2004).
The source made the active and inactive calls.

Assays:
[1] = molecular target: T1, Sentrin-specific protease 6 (Homo sapiens, UniProt Q9GZR1); type: functional
T1 sequence (Q9GZR1 whole entry): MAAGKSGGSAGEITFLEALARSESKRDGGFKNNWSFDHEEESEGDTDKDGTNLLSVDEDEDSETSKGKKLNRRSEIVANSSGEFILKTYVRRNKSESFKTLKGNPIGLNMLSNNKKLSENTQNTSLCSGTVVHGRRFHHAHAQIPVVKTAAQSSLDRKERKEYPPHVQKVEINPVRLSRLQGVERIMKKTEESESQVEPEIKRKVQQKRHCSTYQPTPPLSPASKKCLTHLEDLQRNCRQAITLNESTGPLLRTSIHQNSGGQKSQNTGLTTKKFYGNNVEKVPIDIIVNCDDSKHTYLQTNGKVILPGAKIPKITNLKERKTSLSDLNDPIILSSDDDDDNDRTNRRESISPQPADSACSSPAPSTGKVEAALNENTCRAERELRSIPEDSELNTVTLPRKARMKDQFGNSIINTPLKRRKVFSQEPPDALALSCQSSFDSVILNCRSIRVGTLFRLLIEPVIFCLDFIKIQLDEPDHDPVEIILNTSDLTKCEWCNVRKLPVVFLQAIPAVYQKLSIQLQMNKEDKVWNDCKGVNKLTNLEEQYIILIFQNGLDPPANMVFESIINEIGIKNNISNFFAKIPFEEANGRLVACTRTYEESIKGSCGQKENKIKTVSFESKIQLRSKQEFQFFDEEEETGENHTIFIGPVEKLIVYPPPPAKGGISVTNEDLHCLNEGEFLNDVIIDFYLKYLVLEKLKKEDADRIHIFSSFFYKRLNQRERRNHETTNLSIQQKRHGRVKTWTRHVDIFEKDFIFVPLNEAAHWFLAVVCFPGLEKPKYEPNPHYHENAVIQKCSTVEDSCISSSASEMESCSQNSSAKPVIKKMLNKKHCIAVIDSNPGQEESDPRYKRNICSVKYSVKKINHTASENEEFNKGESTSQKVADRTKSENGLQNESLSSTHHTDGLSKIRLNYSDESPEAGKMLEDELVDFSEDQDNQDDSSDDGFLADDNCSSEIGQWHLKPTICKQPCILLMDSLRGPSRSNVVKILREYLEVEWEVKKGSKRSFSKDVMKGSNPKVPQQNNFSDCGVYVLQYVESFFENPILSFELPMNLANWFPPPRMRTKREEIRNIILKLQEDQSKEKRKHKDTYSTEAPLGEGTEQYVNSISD

Caspase-3 [2] = molecular target: T2, Caspase-3 (Homo sapiens, UniProt P42574); type: functional
T2 sequence (P42574 whole entry): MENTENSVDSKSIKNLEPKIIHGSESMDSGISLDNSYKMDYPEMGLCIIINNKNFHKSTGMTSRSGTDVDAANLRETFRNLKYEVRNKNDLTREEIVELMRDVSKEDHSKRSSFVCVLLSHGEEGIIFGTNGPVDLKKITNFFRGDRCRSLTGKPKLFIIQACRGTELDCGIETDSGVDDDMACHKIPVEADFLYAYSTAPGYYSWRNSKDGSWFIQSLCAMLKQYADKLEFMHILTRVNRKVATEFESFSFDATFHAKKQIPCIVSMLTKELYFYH

[3] = molecular target: T3, Sentrin-specific protease 8 (Homo sapiens, UniProt Q96LD8); type: functional;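 note: luminescence read-out of SENP8 inhibition, dose-response confirmation following an ultra-high-throughput screen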
T3 sequence (Q96LD8 whole entry): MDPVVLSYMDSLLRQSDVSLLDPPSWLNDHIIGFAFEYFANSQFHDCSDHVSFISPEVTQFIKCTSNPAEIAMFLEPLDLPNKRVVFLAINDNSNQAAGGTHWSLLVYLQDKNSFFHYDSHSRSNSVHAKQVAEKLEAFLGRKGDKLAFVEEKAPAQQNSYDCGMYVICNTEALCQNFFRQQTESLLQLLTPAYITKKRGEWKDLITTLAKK

[4] = molecular target: T4, Sentrin-specific protease 7 (Homo sapiens, UniProt Q9BQF6); type: functional;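 note: Luminescence-based dose-response confirmation of ultra-high-throughput screening hits, measuring inhibition of SENP7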
T4 sequence (Q9BQF6 whole entry): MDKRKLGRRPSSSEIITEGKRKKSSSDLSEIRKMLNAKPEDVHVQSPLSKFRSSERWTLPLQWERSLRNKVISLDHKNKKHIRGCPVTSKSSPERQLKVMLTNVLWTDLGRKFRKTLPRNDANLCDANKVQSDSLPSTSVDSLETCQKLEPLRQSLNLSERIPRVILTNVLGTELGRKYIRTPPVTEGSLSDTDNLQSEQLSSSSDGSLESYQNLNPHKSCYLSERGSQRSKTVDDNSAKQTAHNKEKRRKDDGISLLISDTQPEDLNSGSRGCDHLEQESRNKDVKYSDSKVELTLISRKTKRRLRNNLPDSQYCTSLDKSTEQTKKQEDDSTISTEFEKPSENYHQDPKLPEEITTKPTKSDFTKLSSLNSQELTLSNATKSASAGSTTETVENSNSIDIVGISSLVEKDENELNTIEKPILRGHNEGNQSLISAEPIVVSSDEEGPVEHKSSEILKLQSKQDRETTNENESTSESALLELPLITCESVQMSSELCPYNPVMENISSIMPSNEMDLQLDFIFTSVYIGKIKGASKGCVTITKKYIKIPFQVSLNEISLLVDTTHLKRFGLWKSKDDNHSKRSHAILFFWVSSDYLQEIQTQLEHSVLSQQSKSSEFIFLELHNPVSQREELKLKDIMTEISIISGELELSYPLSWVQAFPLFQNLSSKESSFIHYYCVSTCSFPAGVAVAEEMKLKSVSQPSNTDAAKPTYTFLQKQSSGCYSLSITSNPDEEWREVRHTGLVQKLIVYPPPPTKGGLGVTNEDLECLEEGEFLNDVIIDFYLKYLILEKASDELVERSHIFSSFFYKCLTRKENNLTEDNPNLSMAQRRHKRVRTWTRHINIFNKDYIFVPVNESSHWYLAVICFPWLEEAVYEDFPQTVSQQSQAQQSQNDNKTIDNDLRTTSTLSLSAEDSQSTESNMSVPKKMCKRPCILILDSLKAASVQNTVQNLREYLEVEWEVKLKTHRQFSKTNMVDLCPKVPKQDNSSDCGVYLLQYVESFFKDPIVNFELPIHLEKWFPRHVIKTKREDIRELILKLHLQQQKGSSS

[5] = molecular target: T5, Neuropeptides B/W receptor type 1 (Homo sapiens, UniProt P48145); assay: GPR7 antagonist potency, late-stage follow-up, cell-based, fluorescence, dose response, set 6 (AID 588583); type: functional
T5 sequence (P48145 whole entry): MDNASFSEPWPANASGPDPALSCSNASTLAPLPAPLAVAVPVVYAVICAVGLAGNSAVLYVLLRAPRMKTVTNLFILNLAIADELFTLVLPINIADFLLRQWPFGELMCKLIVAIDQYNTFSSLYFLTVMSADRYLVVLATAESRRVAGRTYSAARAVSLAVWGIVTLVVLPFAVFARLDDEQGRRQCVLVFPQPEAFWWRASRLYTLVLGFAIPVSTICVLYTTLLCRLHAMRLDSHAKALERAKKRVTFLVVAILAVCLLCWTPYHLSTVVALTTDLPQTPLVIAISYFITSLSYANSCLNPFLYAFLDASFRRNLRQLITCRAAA

[6] = molecular target: Melanin-concentrating hormone receptor 1 (Homo sapiens, UniProt Q99705); assay: Late-stage fluorescence-based counterscreen for antagonists of the G-protein coupled receptor 7 (GPR7): cell-based dose response assay to identify antagonists of the melanin-concentrating hormone receptor 1 (MCHR1) Set 6.; type: functional
Melanin-concentrating hormone receptor 1, sequence (Q99705 whole entry): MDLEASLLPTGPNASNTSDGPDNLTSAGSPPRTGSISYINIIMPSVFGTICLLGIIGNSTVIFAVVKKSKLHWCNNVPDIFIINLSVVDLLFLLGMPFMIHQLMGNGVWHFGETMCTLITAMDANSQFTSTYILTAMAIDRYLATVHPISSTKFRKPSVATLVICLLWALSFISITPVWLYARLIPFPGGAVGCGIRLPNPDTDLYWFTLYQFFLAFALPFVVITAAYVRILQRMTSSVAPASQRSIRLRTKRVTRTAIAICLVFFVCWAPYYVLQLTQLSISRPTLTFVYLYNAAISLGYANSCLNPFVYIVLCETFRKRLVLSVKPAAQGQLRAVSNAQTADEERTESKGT

[7] = molecular target: Apoptotic protease-activating factor 1 (Homo sapiens, UniProt O14727); type: functional
Apoptotic protease-activating factor 1, sequence (O14727 whole entry): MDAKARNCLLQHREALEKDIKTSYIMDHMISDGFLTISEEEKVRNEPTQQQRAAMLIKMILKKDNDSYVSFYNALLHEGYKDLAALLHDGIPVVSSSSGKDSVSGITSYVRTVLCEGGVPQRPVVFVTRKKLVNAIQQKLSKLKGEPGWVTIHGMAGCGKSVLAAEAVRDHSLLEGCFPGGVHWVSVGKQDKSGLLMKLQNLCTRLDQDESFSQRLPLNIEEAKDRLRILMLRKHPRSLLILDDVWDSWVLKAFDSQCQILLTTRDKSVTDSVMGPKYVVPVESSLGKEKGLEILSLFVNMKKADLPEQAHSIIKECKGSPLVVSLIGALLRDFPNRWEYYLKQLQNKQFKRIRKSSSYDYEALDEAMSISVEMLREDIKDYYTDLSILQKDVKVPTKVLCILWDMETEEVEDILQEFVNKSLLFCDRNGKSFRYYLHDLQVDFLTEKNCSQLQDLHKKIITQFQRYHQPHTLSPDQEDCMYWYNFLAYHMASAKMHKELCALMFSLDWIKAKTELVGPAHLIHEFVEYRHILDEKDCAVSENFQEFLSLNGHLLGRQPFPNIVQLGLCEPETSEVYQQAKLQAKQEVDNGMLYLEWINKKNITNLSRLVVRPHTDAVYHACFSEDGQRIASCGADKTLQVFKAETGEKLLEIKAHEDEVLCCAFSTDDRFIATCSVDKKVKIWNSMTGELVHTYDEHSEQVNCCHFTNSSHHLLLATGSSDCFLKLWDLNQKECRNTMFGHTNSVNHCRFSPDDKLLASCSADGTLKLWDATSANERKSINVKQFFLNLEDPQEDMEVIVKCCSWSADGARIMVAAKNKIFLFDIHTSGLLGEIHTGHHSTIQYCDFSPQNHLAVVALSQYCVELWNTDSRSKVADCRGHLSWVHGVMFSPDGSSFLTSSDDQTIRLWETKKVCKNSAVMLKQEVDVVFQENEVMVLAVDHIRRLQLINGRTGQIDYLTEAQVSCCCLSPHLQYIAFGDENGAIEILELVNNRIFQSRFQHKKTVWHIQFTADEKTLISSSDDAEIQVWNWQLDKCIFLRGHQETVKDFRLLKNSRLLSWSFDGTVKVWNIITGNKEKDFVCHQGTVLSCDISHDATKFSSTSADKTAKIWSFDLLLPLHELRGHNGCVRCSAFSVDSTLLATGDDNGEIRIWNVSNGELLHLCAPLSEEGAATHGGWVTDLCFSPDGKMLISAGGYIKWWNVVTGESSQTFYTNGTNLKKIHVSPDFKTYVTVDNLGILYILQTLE

[8] = molecular target: T6, Mannose-6-phosphate isomerase (Homo sapiens, UniProt P34949); assay: human PMI inhibitors, high substrate, primary screen, biochemical, fluorescence intensity, high mannose 6-phosphate (AID 1220)
T6 sequence (P34949 whole entry): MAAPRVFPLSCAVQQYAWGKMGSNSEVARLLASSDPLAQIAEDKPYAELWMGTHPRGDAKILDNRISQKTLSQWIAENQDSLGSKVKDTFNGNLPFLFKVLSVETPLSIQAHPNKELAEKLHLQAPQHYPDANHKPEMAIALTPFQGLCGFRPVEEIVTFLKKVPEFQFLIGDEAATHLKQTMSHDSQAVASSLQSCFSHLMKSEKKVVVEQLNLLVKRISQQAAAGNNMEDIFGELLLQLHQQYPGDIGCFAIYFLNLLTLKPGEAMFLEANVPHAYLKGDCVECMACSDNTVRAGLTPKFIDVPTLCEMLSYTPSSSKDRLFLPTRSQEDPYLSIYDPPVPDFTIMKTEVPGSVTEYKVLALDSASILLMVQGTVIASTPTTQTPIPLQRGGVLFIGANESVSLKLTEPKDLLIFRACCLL

Aurora kinase A = molecular target: T7, Aurora kinase A (Homo sapiens, UniProt O14965); type: functional;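 note: value from the Navigating the Kinome kinase panel profiling, panel entry STK6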
T7 sequence (O14965 whole entry): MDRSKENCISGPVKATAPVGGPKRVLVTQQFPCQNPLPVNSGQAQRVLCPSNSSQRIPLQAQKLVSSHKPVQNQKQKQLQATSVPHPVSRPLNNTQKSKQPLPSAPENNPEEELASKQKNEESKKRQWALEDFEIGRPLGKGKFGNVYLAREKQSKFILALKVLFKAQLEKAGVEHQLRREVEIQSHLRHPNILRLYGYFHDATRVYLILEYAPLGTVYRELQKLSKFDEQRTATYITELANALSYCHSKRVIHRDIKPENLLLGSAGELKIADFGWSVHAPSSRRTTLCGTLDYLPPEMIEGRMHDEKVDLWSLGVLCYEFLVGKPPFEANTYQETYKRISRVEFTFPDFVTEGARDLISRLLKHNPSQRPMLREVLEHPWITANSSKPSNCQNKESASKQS

Aurora kinase B = Aurora kinase B (Homo sapiens, UniProt Q96GD4); type: functional
Aurora kinase B, sequence (Q96GD4 whole entry): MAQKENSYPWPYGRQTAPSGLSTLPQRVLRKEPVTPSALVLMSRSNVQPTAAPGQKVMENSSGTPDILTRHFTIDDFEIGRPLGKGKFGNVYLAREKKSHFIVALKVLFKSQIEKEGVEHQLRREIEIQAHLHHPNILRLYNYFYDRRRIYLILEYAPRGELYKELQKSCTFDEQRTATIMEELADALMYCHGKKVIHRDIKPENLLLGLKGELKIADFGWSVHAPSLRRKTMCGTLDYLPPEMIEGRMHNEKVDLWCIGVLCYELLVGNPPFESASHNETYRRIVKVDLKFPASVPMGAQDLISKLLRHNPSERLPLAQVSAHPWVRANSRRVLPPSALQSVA

[9] = molecular target: Vascular endothelial growth factor receptor 2 (Homo sapiens, UniProt P35968); type: functional
Vascular endothelial growth factor receptor 2, sequence (P35968 whole entry): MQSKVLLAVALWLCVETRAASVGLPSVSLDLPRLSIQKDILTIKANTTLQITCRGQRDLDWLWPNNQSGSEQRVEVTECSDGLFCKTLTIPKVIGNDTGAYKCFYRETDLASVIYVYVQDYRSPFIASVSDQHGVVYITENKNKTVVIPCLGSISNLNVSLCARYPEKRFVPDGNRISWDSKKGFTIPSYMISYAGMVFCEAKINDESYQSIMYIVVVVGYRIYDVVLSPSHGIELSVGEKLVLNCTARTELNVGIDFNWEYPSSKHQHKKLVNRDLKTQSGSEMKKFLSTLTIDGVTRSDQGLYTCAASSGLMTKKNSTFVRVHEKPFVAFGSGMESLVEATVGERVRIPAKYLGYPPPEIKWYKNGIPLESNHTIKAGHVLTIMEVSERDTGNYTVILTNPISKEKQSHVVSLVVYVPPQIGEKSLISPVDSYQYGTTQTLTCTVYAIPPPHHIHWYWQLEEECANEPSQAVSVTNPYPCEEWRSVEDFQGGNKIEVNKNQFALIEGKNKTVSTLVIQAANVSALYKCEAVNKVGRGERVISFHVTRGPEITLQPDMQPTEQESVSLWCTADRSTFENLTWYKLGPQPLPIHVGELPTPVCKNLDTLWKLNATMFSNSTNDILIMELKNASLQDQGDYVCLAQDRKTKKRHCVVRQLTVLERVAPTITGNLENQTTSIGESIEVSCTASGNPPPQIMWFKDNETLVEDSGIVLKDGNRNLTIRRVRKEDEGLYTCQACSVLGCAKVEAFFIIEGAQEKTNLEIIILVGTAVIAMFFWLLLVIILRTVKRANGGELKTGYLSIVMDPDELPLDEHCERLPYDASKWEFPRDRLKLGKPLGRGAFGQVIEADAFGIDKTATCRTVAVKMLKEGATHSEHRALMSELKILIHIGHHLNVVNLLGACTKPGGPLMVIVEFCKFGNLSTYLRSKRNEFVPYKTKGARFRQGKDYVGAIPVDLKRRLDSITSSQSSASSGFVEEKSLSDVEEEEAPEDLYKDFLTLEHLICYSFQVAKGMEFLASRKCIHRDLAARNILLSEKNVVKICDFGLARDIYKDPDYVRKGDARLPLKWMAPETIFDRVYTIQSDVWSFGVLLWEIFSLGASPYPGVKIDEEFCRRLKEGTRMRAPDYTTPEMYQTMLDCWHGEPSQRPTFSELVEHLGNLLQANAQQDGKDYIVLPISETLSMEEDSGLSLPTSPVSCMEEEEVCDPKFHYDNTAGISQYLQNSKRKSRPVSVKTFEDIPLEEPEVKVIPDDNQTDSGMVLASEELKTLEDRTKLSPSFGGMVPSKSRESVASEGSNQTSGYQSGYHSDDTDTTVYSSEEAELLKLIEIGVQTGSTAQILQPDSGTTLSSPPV

[10] = molecular target: T4, Sentrin-specific protease 7; assay: SENP7 protease inhibitors, SAR follow-up, biochemical, luminescence (AID 504497); type: functional
[11] = molecular target: T1, Sentrin-specific protease 6; assay: SAR Analysis of small molecule inhibitors of Sentrin-specific protease 6 (SENP6) using a Luminescent assay. [Related pubchem assays (depositor defined):AID2582, AID2599]; type: functional
Caspase-3 [12] = molecular target: T2, Caspase-3; assay: SAR Analysis of small molecule inhibitors of Sentrin-specific proteases (SENPs) using a Caspase-3 Selectivity assay. [Related pubchem assays (depositor defined):AID2540, AID2599, AID434973, AID489001]; type: functional
[13] = molecular target: T3, Sentrin-specific protease 8; assay: SENP8 protease inhibitors, SAR follow-up, biochemical, luminescence (AID 504501); type: functional
[14] = molecular target: Cyclin-dependent kinase 19 (Homo sapiens, UniProt Q9BWU1); assay: Navigating the Kinome. Panel member name: CDC2L6; type: functional
Cyclin-dependent kinase 19, sequence (Q9BWU1 whole entry): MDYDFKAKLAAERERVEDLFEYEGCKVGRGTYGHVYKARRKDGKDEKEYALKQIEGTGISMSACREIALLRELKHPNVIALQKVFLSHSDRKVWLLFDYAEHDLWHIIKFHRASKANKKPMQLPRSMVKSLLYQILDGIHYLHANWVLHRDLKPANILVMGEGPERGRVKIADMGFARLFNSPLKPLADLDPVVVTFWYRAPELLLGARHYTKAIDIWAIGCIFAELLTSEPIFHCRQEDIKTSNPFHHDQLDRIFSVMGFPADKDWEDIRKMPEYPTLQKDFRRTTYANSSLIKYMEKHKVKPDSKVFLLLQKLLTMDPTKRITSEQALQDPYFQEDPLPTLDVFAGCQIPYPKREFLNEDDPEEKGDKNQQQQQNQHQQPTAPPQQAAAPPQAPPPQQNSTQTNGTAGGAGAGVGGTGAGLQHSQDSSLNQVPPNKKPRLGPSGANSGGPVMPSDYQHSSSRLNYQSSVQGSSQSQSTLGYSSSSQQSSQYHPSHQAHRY

Cytochrome P450 2C9 = Cytochrome P450 2C9 (Homo sapiens, UniProt P11712)
Cytochrome P450 2C9, sequence (P11712 whole entry): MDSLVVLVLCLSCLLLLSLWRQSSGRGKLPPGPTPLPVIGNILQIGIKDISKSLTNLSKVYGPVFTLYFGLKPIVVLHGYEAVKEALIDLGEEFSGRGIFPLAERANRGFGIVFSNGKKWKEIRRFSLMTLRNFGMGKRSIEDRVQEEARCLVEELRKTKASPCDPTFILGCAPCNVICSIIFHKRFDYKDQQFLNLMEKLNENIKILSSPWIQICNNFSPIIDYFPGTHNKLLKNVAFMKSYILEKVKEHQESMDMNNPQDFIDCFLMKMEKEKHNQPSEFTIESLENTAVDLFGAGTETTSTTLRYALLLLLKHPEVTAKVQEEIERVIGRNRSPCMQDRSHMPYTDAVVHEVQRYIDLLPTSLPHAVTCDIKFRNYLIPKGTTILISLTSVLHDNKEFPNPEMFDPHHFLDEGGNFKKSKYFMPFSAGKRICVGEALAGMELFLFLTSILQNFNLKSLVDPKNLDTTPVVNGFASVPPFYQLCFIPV

Cytochrome P450 2D6 = Cytochrome P450 2D6 (Homo sapiens, UniProt P10635);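 note: CYP2D6 member of a cytochrome P450 panel assay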
Cytochrome P450 2D6, sequence (P10635 whole entry): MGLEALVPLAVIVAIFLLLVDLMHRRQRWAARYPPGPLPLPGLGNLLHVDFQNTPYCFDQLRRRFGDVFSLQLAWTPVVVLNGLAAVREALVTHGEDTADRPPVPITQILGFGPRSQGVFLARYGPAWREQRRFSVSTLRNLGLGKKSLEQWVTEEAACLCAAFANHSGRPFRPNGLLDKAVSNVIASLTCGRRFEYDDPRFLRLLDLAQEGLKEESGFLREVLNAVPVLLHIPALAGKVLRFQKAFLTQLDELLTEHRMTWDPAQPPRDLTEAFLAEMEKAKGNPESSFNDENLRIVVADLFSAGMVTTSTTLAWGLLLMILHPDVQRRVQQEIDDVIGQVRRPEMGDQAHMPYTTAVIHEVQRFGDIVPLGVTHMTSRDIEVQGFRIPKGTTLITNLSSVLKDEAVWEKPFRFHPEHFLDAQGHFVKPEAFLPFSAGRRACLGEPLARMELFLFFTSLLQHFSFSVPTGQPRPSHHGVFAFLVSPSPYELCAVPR

[15] = Luminescence Cell-Based Dose Confirmation HTS to Identify Activators of 5'UTR Stem-Loop Driven Alpha-Synuclein mRNA Translation in H4 Neuroglioblastoma Cells. [Related pubchem assays: 1829 (Project Summary), 1814 (Primary HTS)]; type: functional
[16] = Luminescence Cell-Based Dose Response HTS to Identify Activators of Luciferase Translation or Activity in H4 […] Cells. [Related pubchem assays: 1829 (Project Summary), 1814 (Primary HTS)]; type: functional
[17] = molecular target: FAD-linked sulfhydryl oxidase ALR (Homo sapiens, UniProt P55789); assay: inhibitors of human ALR sulfhydryl oxidase, dose response, biochemical, H2O2 detection, luminescence, cherry-pick (AID 493248)
FAD-linked sulfhydryl oxidase ALR, sequence (P55789 whole entry): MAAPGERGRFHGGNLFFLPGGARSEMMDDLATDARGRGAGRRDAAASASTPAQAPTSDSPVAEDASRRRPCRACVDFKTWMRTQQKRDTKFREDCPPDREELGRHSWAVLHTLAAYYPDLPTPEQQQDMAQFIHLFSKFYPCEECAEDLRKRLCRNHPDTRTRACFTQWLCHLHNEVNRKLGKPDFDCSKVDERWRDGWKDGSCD

Vero = Vero cell cytotoxicity, cytotoxicity control for flavivirus capping enzyme inhibitors (AID 588742); type: functional; details: Chlorocebus sabaeus
H4 = assay: Luminescence Cell-Based Dose Response HTS to Identify Activators of 5'UTR Stem-Loop Driven Prion Protein mRNA Translation in H4 Neuroglioblastoma Cells. [Related pubchem assays: 1829 (Project Summary), 1814 (Primary HTS)]; type: functional; details: Homo sapiens

Cc1ccc(NC(=O)CCc2c(C)nn(-c3ccc(N4CCCCC4)nn3)c2C)cc1F
IC50 [1]: 24.4 µM (active)
IC50 (Caspase-3 [2]): 21.6 µM (active)
IC50 [3]: 29.4 µM (active)
IC50 [4]: 7.86 µM (active)

N#CC(c1ccc(F)c(F)c1)c1c(Cl)cnn(Cc2cccc3ccccc23)c1=O (stereo unspecified)
IC50 [5]: 0.186 µM (active)
IC50 [6]: 0.186 µM (active)

O=C1OC(Nc2ccc3ncccc3c2)c2ccccc21 (stereo unspecified)
IC50 [7]: 32.9 µM (active)
IC50 [8]: > 50 µM (not active)

NC(=O)c1cccc2[nH]c(-c3ccc(N4CCN(Cc5ccccc5)CC4)nc3)nc12
Ki (Aurora kinase A): 0.501 µM (active)
Ki (Aurora kinase B): 0.02 µM (active)
Ki [9]: 2 µM (active)

CN(C)c1cc(NN=Cc2ccco2)nc(N(C)C)n1
IC50 [10]: 35 µM (active)
IC50 [11]: 17.5 µM (active)
IC50 (Caspase-3 [12]): > 99 µM (inactive)
IC50 [13]: 75.6 µM (active)

O=C(/C=C/c1ccc(OC2CSC2)cc1)c1ccccc1
IC50 [10]: 5.23 µM (active)
IC50 [11]: 7.59 µM (active)
IC50 (Caspase-3 [12]): 23.3 µM (active)
IC50 [13]: 8.36 µM (active)

Cc1ccc(NC(=O)Nc2ccc(-c3c(C(C)C)sc4ncnc(N)c34)cc2)cc1
Ki [14]: > 100 µM (inactive)
Ki (Aurora kinase A): 0.0794 µM (active)

COc1cc(Nc2ncc(C(F)(F)F)c(N)n2)cc(OC)c1OC
Ki (Aurora kinase A): 0.2 µM (active)
Ki (Aurora kinase B): 0.0398 µM (active)
Ki [9]: 3.98 µM (active)

Cc1ccc(-c2nn3c(C)nnc3c3ccccc23)cc1S(=O)(=O)NCc1ccccc1
AC50 (Cytochrome P450 2C9): 1.26 µM (inconclusive)
IC50 [7]: 9.2 µM (active)
AC50 (Cytochrome P450 2D6): 15.8 µM (inconclusive)

Nc1ccc(-c2nc3cc([N+](=O)[O-])ccc3[nH]2)cc1
IC50 [1]: 28.3 µM (active)
IC50 (Caspase-3 [2]): 17.2 µM (active)
IC50 [3]: 23.8 µM (active)
IC50 [4]: 8.59 µM (active)

O=C1c2sc3nc4n(c(=O)c3c2CCC1Br)CCCCC4 (stereo unspecified)
EC50 [15]: 5.38 µM (active)
EC50 [16]: 8.79 µM (active)
AC50 [17]: 1.7 µM (active)
CC50 (Vero): 24.2 µM (active)
EC50 (H4): 7.07 µM (active)
